Source: patent US8008487B2, “Substituted thieno[2,3-D]pyrimidines as fungicides” (priority 2004, dated 2011)

Tests used:
Format in all cases: in vivo
Cochliobolus sativus = experiment: Spot Blotch of Wheat (COCHSA), whole-plant fungicide test; details: Bipolaris sorokiniana, foliar, 24 h, 200 ppm on foliage, one-day protectant test, read-out: COCHSA percent control of disease
Procedure: The activity of the compounds as effective fungicides was determined by applying the compounds to plants and observing control of fungal disease. The compounds were formulated at 200 ppm in 10 vol. percent acetone plus 90 vol. percent Triton X water (deionized water 99.99 wt. percent+0.01 wt. percent Triton X100), giving a “formulated test compound.” In a few cases, compounds were formulated at 100, 75 or 8.3 ppm rather than 200 ppm in 10 vol. percent acetone plus 90 vol. percent Triton X water (deionized water 99.99 wt. percent+0.01 wt. percent Triton X100), giving a ‘formulated test compound’. The compounds were tested for ability to control plant diseases in a 1-day protectant test (1DP) or a 2-day curative test (2DC). Formulated test compounds were applied to plants using a turn table sprayer fitted with two opposing air atomization nozzles which delivered approximately 1500 L/ha of spray volume. Plants were inoculated with spores of the fungus the next day (1DP), then incubated in an environment conducive to disease development. In a few cases, the compounds were tested for ability to control plant disease in a two-day curative test. Plants were inoculated with spores of the fungus two days prior to compound application, and incubated in an environment conducive to disease development both before and after compound application (2DC). For all types of tests, disease severity was evaluated 4 to 28 days later, depending on the speed of disease development.
Each pot contained 3-8 seedlings. These plants were sprayed until wet with the formulated test compound. On the following day, the leaves were inoculated with an aqueous spore suspension of Cochliobolus sativus and the plants were kept in high humidity for one to two days to permit spores to germinate and infect the leaf. The plants were then transferred to a greenhouse until disease developed on untreated control plants.
The following table presents the activity of typical compounds of the present invention when evaluated in these experiments. The effectiveness of the test compounds in controlling disease was determined by assessing the severity of disease on treated plants, then converting the severity to percent control based on the level of disease on untreated, inoculated plants.
TABLE 4: Activity of compounds as fungicides. Data are the level at which the given disease was controlled when the given compound was applied to the foliage of the plant at 200 ppm. In a few cases (noted in the table) the compound was applied to the plant at 100, 75 or 8.3 ppm. The plant was inoculated with the fungus one day after treatment. In a few cases (noted in the table) the plant was inoculated with the fungus two days before treatment.

Colletotricum lagenarium = experiment: Cucumber Anthracnose (COLLLA), whole-plant fungicide test; details: 200 ppm on foliage, one-day protectant test; for pest or weed control at 200 ppm: Cucumis sativus, foliar, 24 h, read-out: COLLLA percent control of disease
[1] = tested on: Erysiphe graminis f. sp. tritici; experiment: Powdery Mildew of Wheat (ERYSGT), whole-plant fungicide test; details: Blumeria graminis, foliar, 24 h, 200 ppm on foliage, one-day protectant test, read-out: ERYSGT percent control of disease
Leptosphaeria nodorum = experiment: Glume Blotch of Wheat (LEPTNO), whole-plant fungicide test; details: 200 ppm on foliage, one-day protectant test; for pest or weed control at 200 ppm: Parastagonospora nodorum, foliar, 24 h, read-out: LEPTNO percent control of disease
Phytophthora infestans = experiment: whole plant or invertebrate; details: for pest or weed control at 200 ppm: foliar, read-out: PHYTIN percent control of disease, 200 ppm on foliage, tomato, one-day protectant test
[2] = tested on: Puccinia recondita tritici; experiment: Leaf Rust of Wheat (PUCCRT), whole-plant fungicide test; details: 200 ppm on foliage, one-day protectant test; for pest or weed control at 200 ppm: Puccinia recondita, foliar, 24 h, read-out: PUCCRT percent control of disease
Magnaporthe grisea = experiment: whole plant or invertebrate; details: for pest or weed control at 200 ppm: Pyricularia oryzae, in Oryza sativa, foliar, 24 h, read-out: PYRIOR percent control of disease, 200 ppm on foliage, rice, one-day protectant test
Erysiphe cichoracaerum = experiment: Cucumber Powdery Mildew (ERYSCI), whole-plant fungicide test; details: Erysiphe, foliar, 24 h, 200 ppm on foliage, one-day protectant test, read-out: ERYSCI percent control of disease
Septoria tritici = experiment: Speckled Leaf Blotch of Wheat (SEPTTR), whole-plant fungicide test; details: Zymoseptoria tritici, foliar, 24 h, 200 ppm on foliage, one-day protectant test, read-out: SEPTTR percent control of disease
[3] = Phytophthora infestans, in Solanum lycopersicum, 24 h

| SMILES | pest or weed control at 200 ppm (Cochliobolus sativus) [%] | COLLLA percent control of disease (Colletotricum lagenarium) | pest or weed control at 200 ppm [1] [%] | LEPTNO percent control of disease (Leptosphaeria nodorum) | PHYTIN percent control of disease (Phytophthora infestans; 200 ppm on foliage, tomato, one-day protectant test) | PUCCRT percent control of disease [2] | PYRIOR percent control of disease (Magnaporthe grisea; 200 ppm on foliage, rice, one-day protectant test) | pest or weed control at 200 ppm (Colletotricum lagenarium) [%] | pest or weed control at 200 ppm (Erysiphe cichoracaerum) [%] | pest or weed control at 200 ppm (Leptosphaeria nodorum) [%] | pest or weed control at 200 ppm (Phytophthora infestans; [3]) [%] | pest or weed control at 200 ppm [2] [%] | pest or weed control at 200 ppm (Magnaporthe grisea) [%] | pest or weed control at 200 ppm (Septoria tritici) [%] | pest or weed control at 100 ppm (Phytophthora infestans; Phytophthora infestans, in Solanum lycopersicum, 24 h, read-out: PHYTIN percent control of disease, 100 ppm (footnote a), tomato, one-day protectant test) [%] |
| --- | --- | --- | --- | --- | --- | --- | --- | --- | --- | --- | --- | --- | --- | --- | --- |
| CC(C)c1ccc(C(C)Nc2ncnc3scc(Cl)c23)cc1 (centres unmarked) [Compound 1, (5-Chlorothieno[2,3-d]pyrimidin-4-yl)-[1-(4-isopropylphenyl)ethyl]amine] | 0 to 49 | * (* is 0-49 percent control of disease) | 80 to 100 | *** (*** is 80-100 percent control of disease) | ** (** is 50-79 percent control of disease) | *** (*** is 80-100 percent control of disease) | *** (*** is 80-100 percent control of disease) | – | – | – | – | – | – | – | – |
| COc1cnc(C(C)Nc2ncnc3scc(Cl)c23)nc1 (centres unmarked) [Compound 36] | 0 to 49 | – | 0 to 49 | – | – | – | – | 0 to 49 | 0 to 49 | 0 to 49 | 80 to 100 | 80 to 100 | 80 to 100 | 50 to 79 | – |
| Clc1csc2ncnc(NCCc3ccc(OCc4ccccc4)cc3)c12 [Compound 3] | 0 to 49 | – | 80 to 100 | – | – | – | – | 0 to 49 | – | 80 to 100 | 80 to 100 | 80 to 100 | 80 to 100 | 80 to 100 | – |
| COCc1ccc(C(C)Nc2ncnc3scc(Cl)c23)cc1 (centres unmarked) [Compound 14] | 0 to 49 | – | 80 to 100 | – | – | – | – | 80 to 100 | 80 to 100 | 80 to 100 | 80 to 100 | 80 to 100 | 80 to 100 | 80 to 100 | – |
| CC(Nc1ncnc2scc(Cl)c12)c1ccc(OCc2ccccc2)cc1 (centres unmarked) [Compound 2] | 0 to 49 | – | 80 to 100 | – | – | – | – | 0 to 49 | – | 80 to 100 | 80 to 100 | 80 to 100 | 80 to 100 | 80 to 100 | – |
| CC(Nc1ncnc2scc(Cl)c12)c1ccn(C)c1 (centres unmarked) [Compound 12] | 0 to 49 | – | 0 to 49 | – | – | – | – | 0 to 49 | 0 to 49 | 50 to 79 | 80 to 100 | 50 to 79 | 80 to 100 | 0 to 49 | – |
| COC(=O)c1ccc(CNc2ncnc3scc(Cl)c23)cc1 [Compound 20] | 0 to 49 | – | 0 to 49 | – | – | – | – | – | 0 to 49 | 0 to 49 | – | 0 to 49 | 0 to 49 | 50 to 79 | – |
| CC(Nc1ncnc2scc(Cl)c12)c1ccc(C(F)(F)F)cn1 (centres unmarked) [Compound 19] | 80 to 100 | – | 50 to 79 | – | – | – | – | 0 to 49 | 0 to 49 | 50 to 79 | 0 to 49 | 50 to 79 | 80 to 100 | 50 to 79 | – |
| CC(C)c1ccc(CCNc2ncnc3scc(Cl)c23)cc1 [Compound 7] | 50 to 79 | – | 80 to 100 | – | – | – | – | 0 to 49 | 80 to 100 | 50 to 79 | – | 80 to 100 | 80 to 100 | 50 to 79 | 80 to 100 |
| CC(Nc1ncnc2scc(Cl)c12)c1cnco1 (centres unmarked) [Compound 21] | 0 to 49 | – | 0 to 49 | – | – | – | – | – | 50 to 79 | 0 to 49 | – | 80 to 100 | 80 to 100 | 50 to 79 | – |
| CC(Nc1ncnc2scc(Cl)c12)c1ccn(C(C)C)c1 (centres unmarked) [Compound 16] | 50 to 79 | – | 0 to 49 | – | – | – | – | 0 to 49 | 0 to 49 | 0 to 49 | 0 to 49 | 0 to 49 | 50 to 79 | 0 to 49 | – |
| CC(Nc1ncnc2scc(Cl)c12)c1nccs1 (centres unmarked) [Compound 22] | 0 to 49 | – | 0 to 49 | – | – | – | – | – | 80 to 100 | 0 to 49 | – | 80 to 100 | 80 to 100 | 50 to 79 | – |
| CC(COc1ccc(C(F)(F)F)cn1)Nc1ncnc2scc(Cl)c12 (centres unmarked) [Compound 18, 5-chloro-N-(1-methyl-2-{[5-(trifluoromethyl)pyridin-2-yl]oxy}ethyl)thieno [2,3-d]pyrimidin-4-amine] | 0 to 49 | – | 80 to 100 | – | – | – | – | 0 to 49 | 80 to 100 | 80 to 100 | 80 to 100 | 80 to 100 | 80 to 100 | 80 to 100 | – |
| Clc1csc2ncnc(NC3Cc4ccccc4C3)c12 [Compound 9] | 80 to 100 | – | 0 to 49 | – | – | – | – | 0 to 49 | 80 to 100 | 50 to 79 | 80 to 100 | 80 to 100 | 80 to 100 | 0 to 49 | – |
| CCOc1ccc(C(C)Nc2ncnc3scc(Cl)c23)cn1 (centres unmarked) [Compound 39] | 0 to 49 | – | 80 to 100 | – | – | – | – | 0 to 49 | 80 to 100 | 80 to 100 | 50 to 79 | 80 to 100 | 80 to 100 | 80 to 100 | – |
| CC(Nc1ncnc2scc(Cl)c12)c1ccc(C(F)(F)F)nc1 (centres unmarked) [Compound 44] | 50 to 79 | – | 0 to 49 | – | – | – | – | 0 to 49 | 80 to 100 | 50 to 79 | 50 to 79 | 80 to 100 | 80 to 100 | 0 to 49 | – |
| CC(Nc1ncnc2scc(Cl)c12)c1ccc[nH]1 (centres unmarked) [Compound 11] | 0 to 49 | – | 0 to 49 | – | – | – | – | 0 to 49 | 0 to 49 | 50 to 79 | 0 to 49 | 50 to 79 | 50 to 79 | 50 to 79 | – |
| CC(Nc1ncnc2scc(Cl)c12)c1ccc(Cl)nc1 (centres unmarked) [Compound 28] | 0 to 49 | – | 0 to 49 | – | – | – | – | – | – | 80 to 100 | – | 80 to 100 | 80 to 100 | 80 to 100 | – |
